± gives the standard deviation of the averaged measurements.
Key:
[1] = compound: CC(=O)NCC(=O)N1[C@@H]2CC[C@H]1c1ccc(Nc3ncc(C(F)(F)F)c(NC4CCC4)n3)cc12; experiment: surviving fraction relative to DMSO-only wells; higher = less growth inhibition; details: exposure time: 5 days
In short: (§1)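 Surviving fraction was calculated by normalising CellTiter-Glo luminescence to the median of DMSO-only wells. Tumour cell lines in log phase were seeded in 384-well plates at 250–500 cells per well, and 24 hours later were exposed continuously for five days to inhibitors at 0.5, 1, 5, 10, 50, 100, 500 and 1000 nM.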

PACLITAXEL [2] = compound: T1, CC(=O)O[C@H]1C(=O)[C@@]2(C)[C@H]([C@H](OC(=O)c3ccccc3)[C@]3(O)C[C@H](OC(=O)[C@H](O)[C@@H](NC(=O)c4ccccc4)c4ccccc4)C(C)=C1C3(C)C)[C@]1(OC(C)=O)CO[C@@H]1C[C@@H]2O [PACLITAXEL]; experiment: as above; details: exposure time: 5 days
In short: as §1

[3] = compound: CC(=O)c1c(C)c2cnc(Nc3ccc(N4CCNCC4)cn3)nc2n(C2CCCC2)c1=O; experiment: as above; details: exposure time: 5 days
In short: as §1

CAMPTOTHECIN [4] = compound: T2, CC[C@@]1(O)C(=O)OCc2c1cc1n(c2=O)Cc2cc3ccccc3nc2-1 [CAMPTOTHECIN]; experiment: as above; details: exposure time: 5 days
In short: as §1

YM155 [5] = compound: T3, COCC[n+]1c2c(n(Cc3cnccn3)c1C)C(=O)c1ccccc1C2=O [YM155]; experiment: as above; details: exposure time: 5 days
In short: as §1

GEFITINIB [6] = compound: T4, COc1cc2ncnc(Nc3ccc(F)c(Cl)c3)c2cc1OCCCN1CCOCC1 [GEFITINIB]; experiment: as above; details: exposure time: 5 days
In short: as §1

OSI-906 [7] = compound: T5, C[C@]1(O)C[C@@H](c2nc(-c3ccc4ccc(-c5ccccc5)nc4c3)c3c(N)nccn32)C1 [OSI-906]; experiment: as above; details: exposure time: 5 days
In short: as §1

CELECOXIB [8] = compound: T6, Cc1ccc(-c2cc(C(F)(F)F)nn2-c2ccc(S(N)(=O)=O)cc2)cc1 [CELECOXIB]; experiment: as above; details: exposure time: 5 days
In short: as §1

CARBOPLATIN [9] = compound: T7, O=C(O)C1(C(=O)O)CCC1.[NH2-].[NH2-].[Pt+2] [CARBOPLATIN]; experiment: as above; details: exposure time: 5 days
In short: as §1

[10] = compound: CC(=O)NCC(=O)N1[C@@H]2CC[C@H]1c1ccc(Nc3ncc(C(F)(F)F)c(NC4CCC4)n3)cc12; experiment: area under dose-response curve of surviving fraction (unscaled, Aref=0) (surviving fraction x log10(nM)); higher = more resistant; details: exposure time: 5 days; dose range 0.5-1000 nM
In short: (§2)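 Surviving fractions were fitted by 3-parameter logistic regression in the drc R package to give dose-response survival curves. They came from tumour cell lines treated for five days with eight inhibitor concentrations from 0.5 to 1000 nM and read by CellTiter-Glo luminescence against DMSO-only wells. The area under the curve is the unscaled activity area. It was calculated over log10 dose with Aref = 0.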

PACLITAXEL [11] = compound: T1, PACLITAXEL; experiment: as above; details: exposure time: 5 days; dose range 0.5-1000 nM
In short: as §2

CAMPTOTHECIN [12] = compound: T2, CAMPTOTHECIN; experiment: as above; details: exposure time: 5 days; dose range 0.5-1000 nM
In short: as §2

YM155 [13] = compound: T3, YM155; experiment: as above; details: exposure time: 5 days; dose range 0.5-1000 nM
In short: as §2

GEFITINIB [14] = compound: T4, GEFITINIB; experiment: as above; details: exposure time: 5 days; dose range 0.5-1000 nM
In short: as §2

OSI-906 [15] = compound: T5, OSI-906; experiment: as above; details: exposure time: 5 days; dose range 0.5-1000 nM
In short: as §2

CELECOXIB [16] = compound: T6, CELECOXIB; experiment: as above; details: exposure time: 5 days; dose range 0.5-1000 nM
In short: as §2

CARBOPLATIN [17] = compound: T7, CARBOPLATIN; experiment: as above; details: exposure time: 5 days; dose range 0.5-1000 nM
In short: as §2

JURKAT HAEMATOPOIETIC AND LYMPHOID TISSUE
surviving fraction ([1]; 0.5 nM): 1.07 ± 0.015
surviving fraction ([1]; 1 nM): 1.06 ± 0.028
surviving fraction ([1]; 5 nM): 1.07 ± 0.012
surviving fraction ([1]; 10 nM): 1.03 ± 0.03
surviving fraction ([1]; 50 nM): 0.286 ± 0.012
surviving fraction ([1]; 100 nM): 0.677 ± 0.018
surviving fraction ([1]; 500 nM): 0.395 ± 0.01
surviving fraction ([1]; 1000 nM): 0.305 ± 0.019
surviving fraction (PACLITAXEL [2]; 0.5 nM): 1.01 ± 0.024
surviving fraction (PACLITAXEL [2]; 1 nM): 0.675 ± 0.042
surviving fraction (PACLITAXEL [2]; 5 nM): 0.0347 ± 0.0021
surviving fraction (PACLITAXEL [2]; 10 nM): 0.03 ± 0.001
surviving fraction (PACLITAXEL [2]; 50 nM): 0.0297 ± 0.0011
surviving fraction (PACLITAXEL [2]; 100 nM): 0.0237 ± 0.00058
surviving fraction (PACLITAXEL [2]; 500 nM): 0.02 ± 0.001
surviving fraction (PACLITAXEL [2]; 1000 nM): 0.0213 ± 0.00058
surviving fraction ([3]; 0.5 nM): 1.09 ± 0.017
surviving fraction ([3]; 1 nM): 1.11 ± 0.021
surviving fraction ([3]; 5 nM): 1.0573 ± 0.00058
surviving fraction ([3]; 10 nM): 1.07 ± 0.033
surviving fraction ([3]; 50 nM): 1.03 ± 0.034
surviving fraction ([3]; 100 nM): 1.05 ± 0.013
surviving fraction ([3]; 500 nM): 0.847 ± 0.032
surviving fraction ([3]; 1000 nM): 0.793 ± 0.018
surviving fraction (CAMPTOTHECIN [4]; 0.5 nM): 0.928 ± 0.043
surviving fraction (CAMPTOTHECIN [4]; 1 nM): 0.902 ± 0.025
surviving fraction (CAMPTOTHECIN [4]; 5 nM): 0.282 ± 0.011
surviving fraction (CAMPTOTHECIN [4]; 10 nM): 0.0237 ± 0.0015
surviving fraction (CAMPTOTHECIN [4]; 50 nM): 0.0293 ± 0.00058
surviving fraction (CAMPTOTHECIN [4]; 100 nM): 0.0247 ± 0.00058
surviving fraction (CAMPTOTHECIN [4]; 500 nM): 0.0203 ± 0.00058
surviving fraction (CAMPTOTHECIN [4]; 1000 nM): 0.0253 ± 0.0011
surviving fraction (YM155 [5]; 0.5 nM): 1.02 ± 0.062
surviving fraction (YM155 [5]; 1 nM): 1.033 ± 0.0072
surviving fraction (YM155 [5]; 5 nM): 0.782 ± 0.015
surviving fraction (YM155 [5]; 10 nM): 0.445 ± 0.014
surviving fraction (YM155 [5]; 50 nM): 0.0363 ± 0.00058
surviving fraction (YM155 [5]; 100 nM): 0.029
surviving fraction (YM155 [5]; 500 nM): 0.027
surviving fraction (YM155 [5]; 1000 nM): 0.0317 ± 0.00058
surviving fraction (GEFITINIB [6]; 0.5 nM): 1.07 ± 0.016
surviving fraction (GEFITINIB [6]; 1 nM): 1.09 ± 0.041
surviving fraction (GEFITINIB [6]; 5 nM): 1.062 ± 0.0078
surviving fraction (GEFITINIB [6]; 10 nM): 1.07 ± 0.021
surviving fraction (GEFITINIB [6]; 50 nM): 1.05 ± 0.028
surviving fraction (GEFITINIB [6]; 100 nM): 1.03 ± 0.025
surviving fraction (GEFITINIB [6]; 500 nM): 1.02 ± 0.018
surviving fraction (GEFITINIB [6]; 1000 nM): 1.016 ± 0.0051
surviving fraction (OSI-906 [7]; 0.5 nM): 0.966 ± 0.033
surviving fraction (OSI-906 [7]; 1 nM): 0.971 ± 0.013
surviving fraction (OSI-906 [7]; 5 nM): 0.998 ± 0.032
surviving fraction (OSI-906 [7]; 10 nM): 0.9753 ± 0.009
surviving fraction (OSI-906 [7]; 50 nM): 0.98 ± 0.067
surviving fraction (OSI-906 [7]; 100 nM): 0.965 ± 0.039
surviving fraction (OSI-906 [7]; 500 nM): 1.02 ± 0.012
surviving fraction (OSI-906 [7]; 1000 nM): 0.99 ± 0.021
surviving fraction (CELECOXIB [8]; 0.5 nM): 1.03 ± 0.036
surviving fraction (CELECOXIB [8]; 1 nM): 1.05 ± 0.032
surviving fraction (CELECOXIB [8]; 5 nM): 1.03 ± 0.017
surviving fraction (CELECOXIB [8]; 10 nM): 1.05 ± 0.029
surviving fraction (CELECOXIB [8]; 50 nM): 0.986 ± 0.034
surviving fraction (CELECOXIB [8]; 100 nM): 1 ± 0.03
surviving fraction (CELECOXIB [8]; 500 nM): 1.03 ± 0.013
surviving fraction (CELECOXIB [8]; 1000 nM): 0.975 ± 0.035
surviving fraction (CARBOPLATIN [9]; 0.5 nM): 1 ± 0.021
surviving fraction (CARBOPLATIN [9]; 1 nM): 1.05 ± 0.043
surviving fraction (CARBOPLATIN [9]; 5 nM): 1 ± 0.025
surviving fraction (CARBOPLATIN [9]; 10 nM): 1.03 ± 0.012
surviving fraction (CARBOPLATIN [9]; 50 nM): 1 ± 0.039
surviving fraction (CARBOPLATIN [9]; 100 nM): 1.07 ± 0.031
surviving fraction (CARBOPLATIN [9]; 500 nM): 1.01 ± 0.042
surviving fraction (CARBOPLATIN [9]; 1000 nM): 1.04 ± 0.019
area under dose-response curve [10]: 2.31
area under dose-response curve (PACLITAXEL [11]): 0.401
area under dose-response curve (CAMPTOTHECIN [12]): 0.802
area under dose-response curve (YM155 [13]): 1.3
area under dose-response curve (GEFITINIB [14]): 3.46
area under dose-response curve (OSI-906 [15]): 3.25
area under dose-response curve (CELECOXIB [16]): 3.37
area under dose-response curve (CARBOPLATIN [17]): 3.39
